These results are taken from patent US9732087B2, “Diamino-pyridine, pyrimidine, and pyridazine modulators of the histamine H4 receptor” (JANSSEN PHARMACEUTICA NV, priority 2008, dated 2017).

The test system of one assay is eosinophils. The note with it: cited from earlier work.
For assay [1], the system named is lipopolysaccharide (LPS)-induced tumor necrosis factor alpha (TNF-α) production. The note with it: in vivo; cited from earlier work.
The subject of assay [2] is mast cells. Conditions: cited from earlier work.
In assay [3] the test system is mast cells. The note with it: cited from earlier work. This is another data set of the same source.
The next assay concerns the target H4 receptor (H4R) (Homo sapiens (Human), UniProt Q9H3N8). Conditions: in vitro; cited from earlier work.
For assay [4], the system named is mouse models of asthma, arthritis and dermatitis. The note with it: in vivo; cited from earlier work.
The subject of assay [5] is diabetes induced obese (DIO) mouse model. Description: Insulin resistance in diabetes induced obese (DIO) mouse model. It counts as in vivo. The protocol: Insulin Resistance in Diabetes Induced Obese Mouse Model.
The effect of administration of an H4R antagonist, 5-fluoro-4-methyl-2-{5-methyl-2-[4-(1-methyl-piperidin-4-yl)-butoxy]-pyridin-4-yl}-1H-benzoimidazole (U.S. Pat. No. 7,432,378, Example 165), was tested in the treatment of insulin resistance in the diabetes induced obese (DIO) mouse model. […] Our data support the claim that H4R antagonists have beneficial properties towards the treatment of type 2 diabetes and related metabolic diseases.

H4 receptor (H4R), sequence (Q9H3N8 whole entry, species assumed): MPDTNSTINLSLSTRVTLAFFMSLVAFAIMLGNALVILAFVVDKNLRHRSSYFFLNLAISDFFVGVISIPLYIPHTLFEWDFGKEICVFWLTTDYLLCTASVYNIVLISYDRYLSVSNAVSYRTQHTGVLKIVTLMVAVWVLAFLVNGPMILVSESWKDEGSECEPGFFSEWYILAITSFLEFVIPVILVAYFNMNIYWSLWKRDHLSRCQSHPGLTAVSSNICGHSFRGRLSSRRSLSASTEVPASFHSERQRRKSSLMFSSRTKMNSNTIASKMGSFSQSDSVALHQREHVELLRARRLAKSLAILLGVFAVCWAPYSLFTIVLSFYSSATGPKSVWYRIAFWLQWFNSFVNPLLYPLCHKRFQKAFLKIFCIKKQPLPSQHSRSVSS

As to `Cc1cc(C)c2nc(-c3cnc(NCCCC4CCN(C)CC4)nc3C)[nH]c2c1` [[5-(4,6-dimethyl-1H-benzoimidazol-2-yl)-4-methyl-pyrimidin-2-yl]-[3-(1-methyl-piperidin-4-yl)-propyl]-amine], the “histamine-induced shape change of eosinophils” value in the assay on eosinophils is listed as “inhibited”. Further, the “LPS-induced TNF-α production and other cytokines” value in assay [1] is reported as “inhibited”. For the same molecule, in the assay with mast cells [2], the “chemotaxis of mast cells” value is given as “inhibited”. Moreover, the “IL-6 production in mast cells” value in the assay with mast cells [3] is reported as “inhibited”. On H4 receptor (H4R), the “selectivity over other histamine receptors” value is “greater than 25 fold”. Moreover, the “inflammation in mouse models of asthma, arthritis and dermatitis” value in assay [4] is listed as “reduced inflammation”.
Turning to `Cc1cnc(OCCCCC2CCN(C)CC2)cc1-c1nc2c(C)c(F)ccc2[nH]1` [5-Fluoro-4-methyl-2-{5-methyl-2-[4-(1-methyl-piperidin-4-yl)-butoxy]-pyridin-4-yl}-1H-benzoimidazole], in assay [5], the “MCP-1 and TNF-α expression” value was “reduced”; the “fat content in liver” value is on record as “significantly reduced”. Further, in assay [5] (20 mg/kg PO), the “fed and fasted glucose levels” value is on record as “significantly reduced”; the “insulin sensitivity as determined by an insulin tolerance test” value was “improved”.
